Values after ≈ are worked out from the molar mass of the structure shown.
Test system: ADP-induced aggregation of human blood platelets
Test: cells
Settings: Platelet, read-out: IC50 (human PRP vs ADP)

Row | Structure (SMILES) | IC50 [µg/mL]
1 | O=C(O)COc1cccc(-c2ocnc2-c2nc(-c3ccccc3)c(-c3ccccc3)o2)c1 [Compound 5] | 0.012 (≈ 0.0274 µM)
2 | COC(=O)COc1cccc(-c2ocnc2-c2nc(-c3ccccc3)c(-c3ccccc3)o2)c1 [Compound 6] | 0.012 (≈ 0.0265 µM)
3 | COCOc1cccc(-c2ocnc2-c2nc(-c3ccccc3)c(-c3ccccc3)o2)c1 [Compound 10] | 28 (≈ 66 µM)
4 | c1ccc(-c2nc(-c3ncoc3-c3cccc(OCc4nnn[nH]4)c3)oc2-c2ccccc2)cc1 [Compound 12, 5-[3-[4-(4,5-Diphenyl-2-oxazolyl)-5-oxazolyl]-phenoxy]methyl-1H-tetrazole] | 0.06 (≈ 0.13 µM)
5 | COC(=O)COc1cccc(-c2ocnc2-c2nnc(-c3ccccc3)n2-c2ccccc2)c1 [Compound 16, Methyl [3-[4-(4,5-diphenyl-4H-1,2,4-triazol-3-yl)-5-oxazolyl]phenoxy]acetate] | > 32
6 | O=C(O)COc1cccc(-c2ocnc2-c2nnc(-c3ccccc3)n2-c2ccccc2)c1 [Compound 17] | > 32
7 | COC(=O)COc1cccc(-c2ocnc2-c2nc(-c3ccsc3)c(-c3ccsc3)o2)c1 [Compound 19] | 0.19 (≈ 0.409 µM)
8 | O=C(O)COc1cccc(-c2ocnc2-c2nc(-c3ccsc3)c(-c3ccsc3)o2)c1 [Compound 20] | 0.21 (≈ 0.466 µM)
9 | COC(=O)COc1cccc(-c2ocnc2-c2nc(-c3ccccc3)c(-c3ccccc3)[nH]2)c1 [Compound 22] | 0.13 (≈ 0.288 µM)
10 | O=C(O)COc1cccc(-c2ocnc2-c2nc(-c3ccccc3)c(-c3ccccc3)[nH]2)c1 [Compound 23] | 0.012 (≈ 0.0274 µM)
11 | COC(=O)COc1cccc(-c2ocnc2-c2nc(-c3ccccc3)c(-c3ccccc3)s2)c1 [Compound 31] | 0.26 (≈ 0.555 µM)
12 | O=C(O)COc1cccc(-c2ocnc2-c2nc(-c3ccccc3)c(-c3ccccc3)s2)c1 [Compound 32] | 0.096 (≈ 0.211 µM)

Test system: human PRP vs ADP
Test: not given
Settings: U.S. Pat. No. 4,460,598; Lautenschlager, et al., Drugs of the Future, 11, 26 (1986); cited from earlier work

Row | Structure (SMILES) | IC50 (human PRP vs ADP) [µg/mL]
13 | O=C(O)CCCCCCCOc1nc(-c2ccccc2)c(-c2ccccc2)n1-c1ccccc1 [Octimibate] | 1 (≈ 2.2 µM)

Test system: platelet aggregation
Test: not given
Settings: prior art (U.S. Pat. No. 4,460,598; EPO 0434034); cited from earlier work

Row | Structure (SMILES) | inhibition of platelet aggregation, in words
14 | O=C(O)CCCCCCCOc1nc(-c2ccccc2)c(-c2ccccc2)n1-c1ccccc1 [Octimibate] | broad spectrum inhibitor of platelet aggregation

— US5254576A, “Diphenyl-heterocyclic-oxazole as platelet aggregation inhibitors” (Bristol-Myers Squibb Company, priority 1992, dated 1993)
